Test results as given in ChEMBL document CHEMBL5715954, “Silencing c-Myc translation as a therapeutic strategy through targeting PI3Kδ and CK1ε in hematological malignancies” (Blood, 2017).
Calls of active or inactive are those of the source. The rule behind the calls is not given here.

Tests used:
[1] = target: Myc proto-oncogene protein (Homo sapiens) (UniProt P01106); assay: Inhibition of c-Myc in human LY10 cells assessed as reduction in E2F1 expression at 3 uM incubated for 24 hrs in presence of bortezomib by Western blot analysis; format: cell-based
Chain of Myc proto-oncogene protein (Homo sapiens) (P01106 whole entry): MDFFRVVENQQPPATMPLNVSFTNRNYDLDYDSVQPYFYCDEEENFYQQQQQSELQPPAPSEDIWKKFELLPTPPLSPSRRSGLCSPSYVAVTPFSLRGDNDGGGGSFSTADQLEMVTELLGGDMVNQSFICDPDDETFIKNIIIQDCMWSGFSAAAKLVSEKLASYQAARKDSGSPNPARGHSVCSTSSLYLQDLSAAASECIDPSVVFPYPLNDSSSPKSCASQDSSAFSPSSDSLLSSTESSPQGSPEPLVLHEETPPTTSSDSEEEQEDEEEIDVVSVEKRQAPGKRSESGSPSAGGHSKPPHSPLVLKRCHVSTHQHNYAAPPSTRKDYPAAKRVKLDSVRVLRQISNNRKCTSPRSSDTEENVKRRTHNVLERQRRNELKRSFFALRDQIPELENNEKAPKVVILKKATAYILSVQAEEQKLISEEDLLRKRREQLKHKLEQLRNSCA

mTORC1 (Homo sapiens) [2] = target: T1, mTORC1 (Homo sapiens) (UniProt P42345+Q8N122+Q9BVC4); assay: Inhibition of mTORC1 in human PF-382 cells assessed as reduction in c-Myc expression at 5 uM measured after 24 hrs in presence of bortezomib by Western blot analysis; format: cell-based
T1 sequence (Q8N122 whole entry, looked up, other chains not shown): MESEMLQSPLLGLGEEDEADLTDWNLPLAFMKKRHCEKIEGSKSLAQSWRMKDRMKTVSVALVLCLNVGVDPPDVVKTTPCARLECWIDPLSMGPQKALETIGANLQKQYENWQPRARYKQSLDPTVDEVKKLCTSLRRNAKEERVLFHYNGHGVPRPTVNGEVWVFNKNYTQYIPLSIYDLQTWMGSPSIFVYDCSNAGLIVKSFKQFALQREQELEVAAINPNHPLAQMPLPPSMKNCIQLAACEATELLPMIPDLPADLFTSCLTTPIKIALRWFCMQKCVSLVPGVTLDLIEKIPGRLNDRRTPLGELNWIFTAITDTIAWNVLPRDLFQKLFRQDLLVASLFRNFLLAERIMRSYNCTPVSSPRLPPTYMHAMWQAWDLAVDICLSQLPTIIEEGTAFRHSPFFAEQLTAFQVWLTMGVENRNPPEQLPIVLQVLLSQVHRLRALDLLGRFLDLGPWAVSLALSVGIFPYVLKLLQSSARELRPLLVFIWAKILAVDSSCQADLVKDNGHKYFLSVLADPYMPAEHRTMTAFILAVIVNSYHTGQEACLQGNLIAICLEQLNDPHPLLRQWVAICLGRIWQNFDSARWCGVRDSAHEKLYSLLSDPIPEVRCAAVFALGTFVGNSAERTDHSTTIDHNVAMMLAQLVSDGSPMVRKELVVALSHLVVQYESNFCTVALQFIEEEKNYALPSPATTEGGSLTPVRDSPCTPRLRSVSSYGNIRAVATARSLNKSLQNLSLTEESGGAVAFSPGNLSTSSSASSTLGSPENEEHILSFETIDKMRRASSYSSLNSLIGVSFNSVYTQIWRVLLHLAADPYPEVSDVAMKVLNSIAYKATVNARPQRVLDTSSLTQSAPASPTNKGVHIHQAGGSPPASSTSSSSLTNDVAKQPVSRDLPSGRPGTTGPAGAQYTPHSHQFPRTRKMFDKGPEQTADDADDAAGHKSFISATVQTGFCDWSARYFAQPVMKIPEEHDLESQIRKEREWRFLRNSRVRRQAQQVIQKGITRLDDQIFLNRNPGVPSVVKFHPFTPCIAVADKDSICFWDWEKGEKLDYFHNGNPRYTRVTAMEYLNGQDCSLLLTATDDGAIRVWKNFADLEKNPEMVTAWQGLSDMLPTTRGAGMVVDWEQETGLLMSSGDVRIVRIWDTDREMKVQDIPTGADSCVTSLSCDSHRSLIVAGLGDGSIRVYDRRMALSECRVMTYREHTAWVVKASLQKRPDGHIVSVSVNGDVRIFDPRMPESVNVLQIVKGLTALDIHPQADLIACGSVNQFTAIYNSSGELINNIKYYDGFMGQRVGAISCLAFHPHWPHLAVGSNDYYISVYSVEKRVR
T1 sequence (Q9BVC4 whole entry, looked up, other chains not shown): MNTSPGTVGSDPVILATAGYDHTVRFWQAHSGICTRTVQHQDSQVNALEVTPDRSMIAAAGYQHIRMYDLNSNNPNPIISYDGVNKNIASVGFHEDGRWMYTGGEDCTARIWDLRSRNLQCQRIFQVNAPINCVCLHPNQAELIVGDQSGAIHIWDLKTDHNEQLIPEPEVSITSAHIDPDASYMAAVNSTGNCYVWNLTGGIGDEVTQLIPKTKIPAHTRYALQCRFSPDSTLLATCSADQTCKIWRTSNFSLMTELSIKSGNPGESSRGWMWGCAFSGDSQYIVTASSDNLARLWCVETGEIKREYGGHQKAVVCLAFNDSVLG

mTORC1 (Homo sapiens) [3] = target: T1, mTORC1 (Homo sapiens); assay: Inhibition of mTORC1 in human NCI-H929 cells transduced with an eIF4E-overexpressing plasmid assessed as reduction in eIF4E expression at 5 uM incubated for 24 hrs in presence of carfilzomib by Western blot analysis; format: cell-based
NCI-H929 = assay: Cytotoxicity against human NCI-H929 cells transduced with an empty vector assessed as reduction in cell viability at 5 uM incubated for 24 hrs in presence of carfilzomib by cell-titer glo assay; format: functional, cell-based
mTORC1 (Homo sapiens) [4] = target: T1, mTORC1 (Homo sapiens); assay: Inhibition of mTORC1 in human CLL cells assessed as reduction in c-Myc expression at 5 uM measured after 24 hrs in presence of carfilzomib by Western blot analysis; format: cell-based; details: CLL cell
mTORC1 (Homo sapiens) [5] = target: T1, mTORC1 (Homo sapiens); assay: Inhibition of mTORC1 in human LY7 cells assessed as reduction in c-Myc expression at 3 uM measured after 24 hrs in presence of carfilzomib by Western blot analysis; format: cell-based
MOLT-4 = assay: Antitumor activity against human MOLT-4 cells xenografted in NOD/SCID mouse assessed as reduction in tumor volume at 150 mg/kg, po administered daily for 25 days measured at 2 to 3 times per week during compound dosing by caliper method; format: functional, organism-based; details: time 25.0 day

CC[C@H](Nc1ncnc2[nH]cnc12)c1nc2cccc(F)c2c(=O)n1-c1ccccc1
inhibition [1]: inactive
inhibition (mTORC1 (Homo sapiens) [2]): inactive

CC(C)Oc1ccc(-c2nn([C@@H](C)c3oc4ccc(F)cc4c(=O)c3-c3cccc(F)c3)c3ncnc(N)c23)cc1F [UMBRALISIB]
inhibition (mTORC1 (Homo sapiens) [3]): inactive
Activity (NCI-H929): Active
inhibition (mTORC1 (Homo sapiens) [4]): Active
inhibition (mTORC1 (Homo sapiens) [5]): Active
Activity (MOLT-4): Active
